We go through 22 molecules from patent US12286429B2, “5-oxo-1,2,3,5,8,8a-hexahydroindolizine-3-carboxamide derivatives useful as a factor XIa inhibitors” (Janssen Pharmaceutica NV, priority 2021, dated 2025).

One experiment has as its target Factor XIa (Homo sapiens, UniProt P03951). Kind of experiment: Factor XIa inhibition assay utilizing a fluorophore-quencher pair peptide substrate (FLINT). In kind it is biochemical. The conditions noted are these: 11-point, 3-fold serial dilution, top 100 nM; 30 min preincubation; 15 μM 5Fam-KLTRAETV-K5Tamra substrate; kinetic reads over 30 min; read-out: FXIa Inhibition IC50. In a few lines:
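FXIa ([…]) preincubated 30 min with compound (11-point, 3-fold, top 100 nM, 2% DMSO) in Tris pH 7.5, NaCl, CaCl2, BSA, CHAPS; 15 μM 5Fam-KLTRAETV-K5Tamra substrate then added. Fluorescence (485/520 nm) read kinetically over 30 min at room temperature; IC50 by 4-parameter fit.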

For a further experiment, the target named is human plasma kallikrein (Homo sapiens, UniProt P03952). Kind of experiment: Kallikrein inhibition assay utilizing a quenched AMC peptide substrate (FLINT). The class given is biochemical. As to conditions: 11-point, 3-fold serial dilution, top 1 μM; 30 min preincubation; 2 nM kallikrein; 50 μM Z-Gly-Pro-Arg-AMC; kinetic reads over 30 min. In a few lines: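 Human plasma kallikrein (2 nM final) was pre-incubated 30 min at room temperature with compound (11-point 3-fold series, top 1 μM, 2% DMSO) in Tris pH 7.5, NaCl, CaCl2, BSA, CHAPS buffer. Reaction started with 50 μM Z-Gly-Pro-Arg-AMC (KM 40 μM), and fluorescence (340/440 nm) was read kinetically over 30 min. IC50 came from a 4-parameter logistic fit.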
human plasma kallikrein, sequence (P03952 391-638 limits assumed): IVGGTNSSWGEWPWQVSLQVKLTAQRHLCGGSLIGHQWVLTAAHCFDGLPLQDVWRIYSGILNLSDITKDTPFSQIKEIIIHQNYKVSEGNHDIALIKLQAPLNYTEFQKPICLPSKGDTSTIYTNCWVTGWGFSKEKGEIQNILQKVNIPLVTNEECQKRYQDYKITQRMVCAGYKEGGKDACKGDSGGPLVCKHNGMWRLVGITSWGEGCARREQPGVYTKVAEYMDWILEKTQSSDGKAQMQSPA
human plasma kallikrein, sequence (P03952 20-390 partner limits assumed): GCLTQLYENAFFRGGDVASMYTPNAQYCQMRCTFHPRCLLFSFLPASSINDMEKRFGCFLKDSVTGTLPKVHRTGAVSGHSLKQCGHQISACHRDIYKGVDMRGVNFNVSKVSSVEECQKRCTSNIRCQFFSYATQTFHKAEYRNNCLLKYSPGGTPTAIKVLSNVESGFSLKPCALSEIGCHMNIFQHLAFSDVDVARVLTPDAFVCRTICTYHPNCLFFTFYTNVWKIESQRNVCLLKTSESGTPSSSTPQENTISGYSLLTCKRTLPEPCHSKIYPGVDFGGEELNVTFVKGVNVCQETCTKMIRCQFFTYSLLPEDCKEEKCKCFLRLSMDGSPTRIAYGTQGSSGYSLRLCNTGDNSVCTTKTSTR

Factor XIa, sequence (P03951 388-625 limits assumed): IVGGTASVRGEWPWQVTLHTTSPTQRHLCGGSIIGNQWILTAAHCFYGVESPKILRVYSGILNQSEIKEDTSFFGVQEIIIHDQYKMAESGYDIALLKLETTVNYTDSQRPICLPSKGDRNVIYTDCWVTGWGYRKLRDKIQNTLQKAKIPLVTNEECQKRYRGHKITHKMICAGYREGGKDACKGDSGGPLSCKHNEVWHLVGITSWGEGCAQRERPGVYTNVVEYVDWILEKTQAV
Factor XIa, sequence (P03951 19-387 partner limits assumed): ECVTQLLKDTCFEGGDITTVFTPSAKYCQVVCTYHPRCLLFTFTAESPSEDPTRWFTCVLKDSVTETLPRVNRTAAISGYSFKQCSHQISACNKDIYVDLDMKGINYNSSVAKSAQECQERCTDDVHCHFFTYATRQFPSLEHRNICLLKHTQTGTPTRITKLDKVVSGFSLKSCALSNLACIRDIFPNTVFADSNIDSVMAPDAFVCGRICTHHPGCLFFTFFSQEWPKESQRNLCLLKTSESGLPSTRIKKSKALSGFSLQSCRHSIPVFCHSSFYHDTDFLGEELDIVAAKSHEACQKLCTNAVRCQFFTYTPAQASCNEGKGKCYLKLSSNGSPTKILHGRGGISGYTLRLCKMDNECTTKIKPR

As a reminder, the IC50 is the point on the concentration scale where inhibition reaches its midpoint. With `NC(=O)c1ccc(NC(=O)[C@@H]2CCC3CC(c4c(-n5cnnn5)ccc(Cl)c4F)=CC(=O)N32)cc1` (mixture of isomers) [ID No. 41, (3S)—N-(4-Carbamoylphenyl)-7-(3-chloro-2-fluoro-6-(1H-tetrazol-1-yl)phenyl)-5-oxo-1,2,3,5,8,8a-hexahydroindolizine-3-carboxamide], the IC50 is 0.0074 µM on Factor XIa and 0.0797 µM against human plasma kallikrein.
As to `CC1C(=O)Nc2c(NC(=O)[C@@H]3CC[C@@H]4CC(c5c(-n6cc(C(F)(F)F)nn6)ccc(Cl)c5F)=CC(=O)N43)cccc21` (some centres unmarked) [compound 102], the IC50 was more than 0.05 µM at Factor XIa and 0.57 µM against human plasma kallikrein.
Take `CC1(C)C[C@@H](C(=O)Nc2ccc3nccnc3c2)N2C(=O)C=C(c3c(-n4cnnn4)ccc(Cl)c3F)CC21` (single isomer, unassigned) [ID No. 59, (3S,8aR*)-7-[3-Chloro-2-fluoro-6-(tetrazol-1-yl)phenyl]-1,1-dimethyl-5-oxo-N-quinoxalin-6-yl-2,3,8,8a-tetrahydroindolizine-3-carboxamide]: the IC50 on Factor XIa came out at 0.0829 µM; against human plasma kallikrein it was 0.0388 µM.
`O=C(Nc1ccc(-c2nc(=O)o[nH]2)cc1)[C@@H]1CCC2CC(c3c(-n4cnnn4)ccc(Cl)c3F)=CC(=O)N21` (mixture of isomers) [ID No. 76, (3S)-7-[3-Chloro-2-fluoro-6-(tetrazol-1-yl)phenyl]-5-oxo-N-[4-(5-oxo-2H-1,2,4-oxadiazol-3-yl)phenyl]-2,3,8,8a-tetrahydro-1H-indolizine-3-carboxamide]: the IC50 stood at 0.0003 µM at Factor XIa and 0.0222 µM against human plasma kallikrein.
On to `O=C(Nc1ccc2n[nH]nc2c1)[C@@H]1CCC2CC(c3c(-n4cnnn4)ccc(Cl)c3F)=CC(=O)N21` (mixture of isomers) [ID No. 56, (3S)—N-(2H-benzo[d][1,2,3]triazol-5-yl)-7-(3-chloro-2-fluoro-6-(1H-tetrazol-1-yl)phenyl)-5-oxo-1,2,3,5,8,8a-hexahydroindolizine-3-carboxamide], for which the results for the IC50 on Factor XIa and against human plasma kallikrein were 0.0054 µM and 0.019 µM, respectively.
With `O=C(Nc1ccc(-n2nccn2)cc1)[C@@H]1CCC2CC(c3c(-n4cnnn4)ccc(Cl)c3F)=CC(=O)N21` (mixture of isomers) [ID No. 49, (3S)—N-(4-(2H-1,2,3-triazol-2-yl)phenyl)-7-(3-chloro-2-fluoro-6-(1H-tetrazol-1-yl)phenyl)-5-oxo-1,2,3,5,8,8a-hexahydroindolizine-3-carboxamide], the values for the IC50 at Factor XIa and on human plasma kallikrein were 0.0305 µM and 0.0542 µM, respectively.
The matching figures for `O=C(Nc1ccc2nc[nH]c2c1)[C@@H]1CCC2CC(c3c(-n4cnnn4)ccc(Cl)c3F)=CC(=O)N21` (mixture of isomers) [ID No. 53, (3S)—N-(1H-benzo[d]imidazol-6-yl)-7-(3-chloro-2-fluoro-6-(1H-tetrazol-1-yl)phenyl)-5-oxo-1,2,3,5,8,8a-hexahydroindolizine-3-carboxamide]: 0.0111 µM and 0.0562 µM.
With `CO[C@@H]1C[C@@H](C(=O)Nc2ccc3n[nH]cc3c2)N2C(=O)C=C(c3c(-n4cnnn4)ccc(Cl)c3F)CC12` (mixture of isomers) [ID No. 43, (1R,3S)-7-[3-Chloro-2-fluoro-6-(tetrazol-1-yl)phenyl]-N-(2H-indazol-5-yl)-1-methoxy-5-oxo-2,3,8,8a-tetrahydro-1H-indolizine-3-carboxamide], the 50% inhibitory concentration (IC50) on Factor XIa is 0.011 µM; against human plasma kallikrein, 0.0313 µM.
On to `O=C(Nc1ccc(-n2ccnn2)cc1)[C@@H]1CCC2CC(c3c(-n4cnnn4)ccc(Cl)c3F)=CC(=O)N21` (mixture of isomers) [ID No. 48, (3S)—N-(4-(1H-1,2,3-triazol-1-yl)phenyl)-7-(3-chloro-2-fluoro-6-(1H-tetrazol-1-yl)phenyl)-5-oxo-1,2,3,5,8,8a-hexahydroindolizine-3-carboxamide], for which the results for the half-maximal inhibitory concentration (IC50) at Factor XIa and at human plasma kallikrein were 0.0214 µM and 0.0863 µM, respectively.
The matching figures for `CO[C@H]1C[C@@H](C(=O)Nc2ccc3ncccc3c2)N2C(=O)C=C(c3c(-n4cnnn4)ccc(Cl)c3F)CC12` (mixture of isomers) [ID No. 29, (1S,3S)-7-[3-Chloro-2-fluoro-6-(tetrazol-1-yl)phenyl]-1-methoxy-5-oxo-N-(6-quinolyl)-2,3,8,8a-tetrahydro-1H-indolizine-3-carboxamide]: 0.18 µM and 0.611 µM.
The matching figures for `NC(=O)c1c(F)cc(NC(=O)[C@@H]2CCC3CC(c4c(-n5cnnn5)ccc(Cl)c4F)=CC(=O)N32)cc1F` (mixture of isomers) [ID No. 33, (3S)—N-(4-Carbamoyl-3,5-difluorophenyl)-7-(3-chloro-2-fluoro-6-(1H-tetrazol-1-yl)phenyl)-5-oxo-1,2,3,5,8,8a-hexahydroindolizine-3-carboxamide]: 0.024 µM and 0.204 µM.
For the molecule `CN(C)c1ccc2cc(NC(=O)[C@@H]3CC[C@@H]4CC(c5c(-n6cnnn6)ccc(Cl)c5F)=CC(=O)N43)ccc2n1` [ID No. 11, (3S,8aR)-7-(3-Chloro-2-fluoro-6-(1H-tetrazol-1-yl)phenyl)-N-(2-(dimethylamino)quinolin-6-yl)-5-oxo-1,2,3,5,8,8a-hexahydroindolizine-3-carboxamide], the IC50 at Factor XIa was determined as 0.0388 µM; at human plasma kallikrein, 0.0662 µM.
`CC1C[C@@H](C(=O)Nc2ccc3nccnc3c2)N2C(=O)C=C(c3c(-n4cnnn4)ccc(Cl)c3F)CC12` (mixture of isomers) [ID No. 85, (3S)-7-[3-Chloro-2-fluoro-6-(tetrazol-1-yl)phenyl]-1-methyl-5-oxo-N-quinoxalin-6-yl-2,3,8,8a-tetrahydro-1H-indolizine-3-carboxamide]: the results for the IC50 on Factor XIa and on human plasma kallikrein were 0.0099 µM and 0.0122 µM, respectively.
On to `Nc1ccc2cc(NC(=O)[C@@H]3CC[C@@H]4CC(c5c(-n6cnnn6)ccc(Cl)c5F)=CC(=O)N43)ccc2n1` [ID No. 6, (3S,8aR)—N-(2-Aminoquinolin-6-yl)-7-(3-chloro-2-fluoro-6-(1H-tetrazol-1-yl)phenyl)-5-oxo-1,2,3,5,8,8a-hexahydroindolizine-3-carboxamide], for which the IC50 on Factor XIa is 0.008 µM; against human plasma kallikrein, 0.0143 µM.
On to `O=C(Nc1ccc2c(c1)CN(O)C2=O)[C@@H]1CCC2CC(c3c(-n4cnnn4)ccc(Cl)c3F)=CC(=O)N21` (mixture of isomers) [ID No. 30, (3S)-7-(3-Chloro-2-fluoro-6-(1H-tetrazol-1-yl)phenyl)-N-(2-hydroxy-1-oxoisoindolin-5-yl)-5-oxo-1,2,3,5,8,8a-hexahydroindolizine-3-carboxamide], for which the IC50 at Factor XIa was more than 0.095 µM; at human plasma kallikrein it was 0.128 µM.
`O=C(Nc1ccc2nc[nH]c(=O)c2c1)[C@@H]1CC[C@@H]2CC(c3c(-n4cnnn4)ccc(Cl)c3F)=CC(=O)N21` [ID No. 18, (3S,8aR)-7-(3-Chloro-2-fluoro-6-(1H-tetrazol-1-yl)phenyl)-5-oxo-N-(4-oxo-3,4-dihydroquinazolin-6-yl)-1,2,3,5,8,8a-hexahydroindolizine-3-carboxamide]: the IC50 at Factor XIa is 0.0061 µM; against human plasma kallikrein, 0.0092 µM.
Taken in the same sequence, the figures for `O=C(O)c1ccc(NC(=O)[C@@H]2CCC3CC(c4c(-n5cnnn5)ccc(Cl)c4F)=CC(=O)N32)cc1F` (single isomer, unassigned) [ID No. 51, (3S,8aS*)-4-[[7-[3-Chloro-2-fluoro-6-(tetrazol-1-yl)phenyl]-5-oxo-2,3,8,8a-tetrahydro-1H-indolizine-3-carbonyl]amino]-2-fluoro-benzoic acid] were 0.0025 µM and 0.149 µM.
As for `O=C(O)c1c(F)cc(NC(=O)[C@@H]2CCC3CC(c4c(-n5cnnn5)ccc(Cl)c4F)=CC(=O)N32)cc1F` (mixture of isomers) [ID No. 37, 4-[[(3S)-7-[3-Chloro-2-fluoro-6-(tetrazol-1-yl)phenyl]-5-oxo-2,3,8,8a-tetrahydro-1H-indolizine-3-carbonyl]amino]-2,6-difluoro-benzoic acid], the IC50 at Factor XIa is 0.0058 µM; on human plasma kallikrein, 0.282 µM.
Taken in the same sequence, the figures for `O=C(Nc1ccc2[nH]nc(O)c2c1)[C@@H]1CCC2CC(c3c(-n4cnnn4)ccc(Cl)c3F)=CC(=O)N21` (mixture of isomers) [ID No. 57, (3S)-7-[3-Chloro-2-fluoro-6-(tetrazol-1-yl)phenyl]-N-(3-hydroxy-1H-indazol-5-yl)-5-oxo-2,3,8,8a-tetrahydro-1H-indolizine-3-carboxamide] were 0.0167 µM and 0.0361 µM.
With `Cn1nnnc1-c1ccc(NC(=O)[C@@H]2CCC3CC(c4c(-n5cnnn5)ccc(Cl)c4F)=CC(=O)N32)cc1` (mixture of isomers) [ID No. 70, (3S)-7-[3-Chloro-2-fluoro-6-(tetrazol-1-yl)phenyl]-N-[4-(1-methyltetrazol-5-yl)phenyl]-5-oxo-2,3,8,8a-tetrahydro-1H-indolizine-3-carboxamide], the values for the IC50 on Factor XIa and against human plasma kallikrein were 0.0848 µM and 0.436 µM, respectively.
On to `O=C(Nc1ccc(-c2nc(=O)o[nH]2)cc1)[C@@H]1CCC2CC(c3c(OC(F)F)ccc(Cl)c3F)=CC(=O)N21` (mixture of isomers) [ID No. 38, (3S)-7-(3-Chloro-6-(difluoromethoxy)-2-fluorophenyl)-5-oxo-N-(4-(5-oxo-2,5-dihydro-1,2,4-oxadiazol-3-yl)phenyl)-1,2,3,5,8,8a-hexahydroindolizine-3-carboxamide], for which the half-maximal inhibitory concentration (IC50) was found to be 0.0402 µM at Factor XIa and 0.421 µM against human plasma kallikrein.
Regarding `CC1(C)C(=O)Nc2ccc(NC(=O)[C@@H]3CC[C@@H]4CC(c5c(-n6cnnn6)ccc(Cl)c5F)=CC(=O)N43)cc21` [ID No. 7, (3S,8aR)-7-(3-Chloro-2-fluoro-6-(1H-tetrazol-1-yl)phenyl)-N-(3,3-dimethyl-2-oxoindolin-5-yl)-5-oxo-1,2,3,5,8,8a-hexahydroindolizine-3-carboxamide], the half-inhibitory concentration (IC50) at Factor XIa worked out at 0.065 µM; against human plasma kallikrein, 0.131 µM.
